Measurements reported in patent US20250170100A1, “MONOACYLGLYCEROL LIPASE INHIBITORS AND USE THEREOF FOR THE TREATMENT OF ANXIETY AND RELATED CONDITIONS” (Psy Therapeutics, Inc., priority 2021, published 2025).

Columns and labels:
[1] = target: human MAGL (Homo sapiens (Human), UniProt Q99685); assay: MAGL reversible inhibition assay (washout); type: biochemical; conditions: pre-washout compound concentration: 1 μM
Method: The reversible mechanism of MAGL inhibition of a test compound of Formula (I) can be determined. Flag-tagged MAGL enzyme will be immobilized on anti-Flag beads. Immobilized enzyme will be incubated+/−inhibitor at a dose that produces complete inhibition. Colorimetric substrate (4-NPA) will be added and the reaction monitored on a plate reader for 30 minutes to verify complete inhibition. Immobilized enzyme will then be washed thoroughly to remove the inhibitor, and fresh substrate will be added. The reaction will be monitored for an additional 30 minutes; returning enzymatic activity will indicate reversibility of inhibition.
MAGL enzyme was incubated for 30 minutes in the presence of 40× the IC50 concentration of inhibitor. Enzyme+inhibitor mix was then diluted 40-fold so that the final concentration of the inhibitor equaled the IC50 concentration. Substrate was added and the reaction was monitored for 30 minutes.

[2] = Pharmacokinetic study of compounds in mice (brain, oral); type: in vivo, male C57BL/6 mice; conditions: 5 mg/kg
Method: Healthy male C57BL/6 mice (8-12 weeks old) weighing between 17 to 35 g were procured from Global, India. Temperature and humidity were maintained at 22±3° C. and 30-70%, respectively and illumination was controlled to give a sequence of 12 hr light and 12 hr dark cycle. Temperature and humidity were recorded by auto-controlled data logger system. All the animals were provided laboratory rodent diet. Reverse osmosis water treated with ultraviolet light was provided ad libitum.
Protocol A: Twenty-four male mice were divided into two groups as; Group 1:30 mg/kg/IP, Plasma and brain; Number of animals=12; Animal #1-12. Group 2:30 mg/kg/PO; Plasma and brain; Number of animals=12; Animal #13-24. […] All samples were processed for analysis by protein precipitation using acetonitrile and analyzed with fit-for-purpose LC/MS/MS method (LLOQ-2.02 ng/mL for plasma and 6.06 ng/g for brain). Pharmacokinetic parameters were calculated using the non-compartmental analysis tool of Phoenix WinNonlin®.
Protocol B: Thirty six mice were included into the study and divided in to three groups as Group 1 (n=12), Group 2 (n=12) and Group 3 (n=12) with n=2 mice per time-point design. […] Plasma and brain samples were quantified by fit-for-purpose LC-MS/MS method (LLOQ: 1.01 ng/mL for plasma and 2.02 ng/ml for brain). […]

[3] = Plasma and brain concentrations after single intraperitoneal administration of Compound 473; type: in vivo, male C57BL/6 mice; conditions: male, C57BL/6, mouse, IP 20 mg/kg, read-out: Brain/Plasma Ratio (kp) (mean)
Method: (§1) This experiment was performed to determine plasma pharmacokinetics and estimate 2-AG levels in male C57BL/6 mice brain following a single intraperitoneal administration of Compound-473 (Dose: 20 mg/kg).
(§2) Study Design: A total of twelve C57BL/6 male mice were used in this study. Six animals were administered intraperitoneally with solution formulation of PSY-05-00473-002 at 20 mg/kg dose. Six animals were administered vehicle (5% NMP, 5% Solutol HS15 and 90% Normal saline) intraperitoneally at 10 mL/kg dose volume. Blood samples (approximately 60 μL) were collected under light isoflurane anesthesia from a set of six mice at 0.5 h. Plasma was harvested by centrifugation of blood and stored at −70±10° C. until analysis. After blood collection, mice were euthanized by cervical dislocation and brain samples were dissected rapidly and snapped frozen in liquid nitrogen and stored at −80. To homogenize, removed brain samples from the freezer, were divided into two equal hemispheres and weighed while still in frozen condition, and begun homogenization/extraction procedure without allowing the brain samples to thaw. […]
(§3) Analysis: For PK estimation, brain samples were homogenized in 2 volumes of PBS of brain weight. […] Plasma and brain homogenate samples were quantified by fit-for-purpose LC-MS/MS method (LLOQ: 1.02 ng/mL for plasma and 2.03 ng/ml for brain).

[4] = target: human recombinant FAAH (Homo sapiens (Human), UniProt O00519); assay: FAAH counter screen (Fatty Acid Amide Hydrolase Inhibitor Screening Assay Kit); type: biochemical; conditions: Method B: starting concentration of 10 μM
Method: MAGL inhibitor compounds were also counter-screened for FAAH inhibition potency using the following assay. Assessment of FAAH inhibition was performed using Fatty Acid Amide Hydrolase Inhibitor Screening Assay Kit (Cayman Item No. 10005196) following manufacture's instruction with some modifications. The kit utilizes human recombinant FAAH and the fluorescent substrate, AMC Arachidonoyl amide (AAMCA). 5 μL of assay buffer (125 mM Tris, pH 9.0, 1 mM EDTA, i.e. ethylenediaminetetraacetic acid) was added to a 384-well black plate (Corning, 3573). Test compounds and control inhibitor JZL-195 (Cayman Chemical, 13668) were tested in 10-concentration IC50 mode with 3-fold serial dilution at a starting concentration of 100 μM and 10 μM, respectively. 300 nL or 30 nL of test compounds were delivered into a 384-well black plate (Corning, 3573) using a Labcyte Echo, followed by addition of 15 μL of FAAH enzyme (Cayman, 700302) in assay buffer. After a 5-minute pre-incubation at room temperature, 10 μL of AAMCA was added in assay buffer to start the reaction. Final concentration of FAAH enzyme is not specified and AAMCA substrate was used at the 20 μM. After these dilutions, the final concentration of the test compounds ranged from 100 μM to 5.08 nM or 10 μM down to 0.508 nM. The reaction was allowed to progress for 60 minutes, while the plate was read on an Envision plate reader at an Ex/Em of 350/460 nm with readings every minute. The data was analyzed in Microsoft Excel, using the slope between 30 and 59 minutes. The average of the no-enzyme wells (background) was subtracted from the data. The background-subtracted slope data was converted to % activity using the average of wells with enzyme and DMSO vehicle. IC50 values were calculated using GraphPad software (Sigmoidal dose response, variable slope equation).
Compounds listed in Table D2 were tested in the FAAH Counterscreen of Example 19

[5] = test system: 2-AG levels in brain; assay: 2-AG estimation in mouse brain after single intraperitoneal administration of Compound 473; type: in vivo, male C57BL/6 mice; conditions: IP 20 mg/kg, 0.5 h
Method: as §1, §2, §3

Chain of human recombinant FAAH (O00519 whole entry): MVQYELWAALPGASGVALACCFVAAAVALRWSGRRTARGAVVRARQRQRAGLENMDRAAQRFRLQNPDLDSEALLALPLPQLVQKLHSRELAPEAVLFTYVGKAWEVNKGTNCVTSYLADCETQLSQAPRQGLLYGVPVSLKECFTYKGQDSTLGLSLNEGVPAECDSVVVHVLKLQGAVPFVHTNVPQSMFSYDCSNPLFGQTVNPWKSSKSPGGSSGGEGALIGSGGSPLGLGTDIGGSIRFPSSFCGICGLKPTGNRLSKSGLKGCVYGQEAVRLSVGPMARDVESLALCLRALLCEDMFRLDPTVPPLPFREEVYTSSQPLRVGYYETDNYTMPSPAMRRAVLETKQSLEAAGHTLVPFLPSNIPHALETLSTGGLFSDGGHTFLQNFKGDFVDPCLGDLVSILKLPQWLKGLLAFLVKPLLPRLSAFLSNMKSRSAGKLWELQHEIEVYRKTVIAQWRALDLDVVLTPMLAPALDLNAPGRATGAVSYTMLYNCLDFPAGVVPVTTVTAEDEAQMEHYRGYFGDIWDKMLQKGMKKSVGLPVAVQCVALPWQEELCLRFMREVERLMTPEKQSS
Chain of human MAGL (Q99685 whole entry): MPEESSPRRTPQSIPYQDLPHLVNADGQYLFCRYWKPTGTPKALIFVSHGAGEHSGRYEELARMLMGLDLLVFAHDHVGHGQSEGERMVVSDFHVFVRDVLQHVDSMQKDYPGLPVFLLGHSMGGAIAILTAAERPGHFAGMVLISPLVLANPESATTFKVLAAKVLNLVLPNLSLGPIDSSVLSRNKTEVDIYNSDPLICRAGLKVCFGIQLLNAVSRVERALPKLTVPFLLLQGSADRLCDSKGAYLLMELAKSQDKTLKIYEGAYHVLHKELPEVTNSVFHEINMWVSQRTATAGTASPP

O=C(c1cc(O)ccc1F)N1CC2(CC(n3cc(C(F)(F)F)c(-c4ccccc4F)n3)C2)C1 [Compound 473, (2-fluoro-5-hydroxyphenyl) {6-[3-(o-fluorophenyl)-4-(trifluoromethyl)-1-pyrazolyl]-2-aza-2-spiro[3.3]heptyl}methanone]
A: degree to which MAGL enzymatic activity returned following washout [1]: 41
AUClast [2]: 464.42 ng·h/mL
Cmax [2]: 171.59 ng/g
Kp at 0.5 h [3]: 1.44
IC50 [4]: > 10 µM
Mean 2AG Concentration in Brain [5]: 17.38 nmol/g
